“Also recorded” adds a separate entry of the source.
Assays:
[1] = system: CD20 positive lymphoma cells (MC116); test: SR101 / fixable SR101 staining and CD20 co-labeling in CNS lymphoma xenograft acute slices, confocal stereology; assay type: cell-based, human CNS lymphoma cells implanted in nude rats
Method: Xenograft acute slices were incubated with the fixable version of SR101 (Texas Red Hydrazide; Sigma), washed at room temperature, and fixed with 4% paraformaldehyde for 12 hours at 4 degrees C. Slices were then rinsed in phosphate buffered saline, permeabilized with 0.3% triton, and blocked with CAS block (Invitrogen) (reference Pierre's paper). GBM xenograft slices were incubated 12-hours in anti-GFAP primary antibody (Millipore; 1:500), and Lymphoma sections were incubated 12-hours in anti-CD20 primary antibody (Millipore; 1:250). Sections were then rinsed and incubated with AlexaFluor488 secondary antibody (Invitrogen), followed by nuclear counterstaining with Dapi (Invitrogen). […]
We randomly selected one rostral, midline, and caudal acute slice from each brain containing tumor incubated with fixable SR101. […] Cells within the dissector, and those in contact with its left and bottom edges were counted for either GFAP or CD20 positivity, and for SR101 positivity. The percent overlap between immunostaining and SR101 positivity was calculated. […]
(§1) Next, we incubated acute slices from astrocytoma and CNS lymphoma animal models with fixable-SR101 and quantified the staining localization to GFAP for astrocytoma slices and CD20 for lymphoma slices. We adapted standard stereology approaches to quantify tumor cells labeled with fixable-SR101 and GFAP or CD20 antibodies. […]

[2] = system: human glioma cell line U251; test: In vitro SR101 labeling of cultured astrocytoma cells; assay type: cell-based; conditions: 5 uM SR101, 20 minutes, DIC imaging with fluorescence overlay
Method: We acquired human glioma cell line U251 and human CNS lymphoma cell line MC116 from ATCC. Cells were maintained in culture with DMEM media supplemented with 10% FBS, and RPMI media supplemented with 20% FBS respectively (all from Invitrogen, Grand Island, N.Y.). Cells were grown at 37° C. in a humidified incubator under 5% CO2.
We labeled U251 glioma cells by seeding a collagen-coated glass-bottom dish (MatTek) with 100,000 cells. After 24 hours, media was replaced with aCSF containing 5 uM SR101 (Sigma) for 20 minutes, followed by two 5 minute washes with standard aCSF.
(§2) SR101-labeled samples were placed in uncoated No. 1.5 glass-bottom dishes and positioned on the stage of a Zeiss 710 laser scanning confocal microscope equipped with a 40×/1.2 NA water emersion objection. We imaged SR101 by exciting the fluorophore with a 561 nm diode laser and collecting 595 nm-625 nm emission. The confocal aperature was set to Airy unit for all imaging. The laser and gain values were set to fill the dynamic range of the photomultiplier tube, and the frame size was set to sample at nyquist. Images were collected in 8 and 12 bit format absent of non-linear processing. An unstained adjacent tissue sample was imaged with each sample. In some cases, large field-of-view tiled and optically sectioned images were rapidly acquired using a Zeiss line-sweeping confocal microscope. […]

[3] = system: human brain tumor biopsies; test: SR101 staining of fresh human brain tumor biopsies, confocal imaging; assay type: cell-based
Method: This research was approved by the institutional review board at St. Joseph's Hospital and Medical Center and all surgery was performed at the Barrow Neurological Institute. All subjects were consented pre-operatively for participation. Samples were obtained at the time of craniotomy from within the tumor mass at a location determined to be safe by the surgeon. The samples, averaging 4×2×2 mm in size, were transferred into ice-cold artificial cerebrospinal fluid (aCSF) containing 5 uM SR101. Samples were then transferred from the operating room to the laboratory, rinsed with aCSF (10 minutes), and immediately imaged.
SR101-labeled samples were placed in uncoated No. 1.5 glass-bottom dishes and positioned on the stage of a Zeiss 710 laser scanning confocal microscope equipped with a 40×/1.2 NA water emersion objection. We imaged SR101 by exciting the fluorophore with a 561 nm diode laser and collecting 595 nm-625 nm emission. The confocal aperature was set to Airy unit for all imaging. The laser and gain values were set to fill the dynamic range of the photomultiplier tube, and the frame size was set to sample at nyquist. Images were collected in 8 and 12 bit format absent of non-linear processing. An unstained adjacent tissue sample was imaged with each sample. In some cases, large field-of-view tiled and optically sectioned images were rapidly acquired using a Zeiss line-sweeping confocal microscope. Frame size for this system was fixed to 512×512 by a linear charged coupled device (CCD) array.
After we identified SR101's ability to rapidly label and differentiate astrocytoma cells and reactive astrocytes in animal models, we tested its utility as an intraoperative diagnostic agent. We determined the feasibility of intraoperatively identifying astrocytic brain tumors by confocal fluorescence imaging of fresh human brain tumor biopsies labeled with SR101. We screened samples from 60* patients with a total of 10 common human brain tumor types. The diagnosis as determined by traditional immunohistochemistry and paraffin-embedded hematoxylin and eosin histopathology was accepted as the final diagnosis for the purposes of comparison.
Tissue samples were transported in artificial cerebrospinal fluid and imaged within 30-40 minutes of resection. We first found SR101 filled the cytoplasm of astrocytes in non-tumor burdened brain (FIG. 4A). Next, we studied tissue sampled from tumor margins and found SR101 filled the cytoplasm of reactive astrocytes and tumor cells in these regions (FIG. 4B). […] At higher magnification we observed that SR101 delineated some cell nuclei and identified nuclear atypia which is a common feature of some gliomas (FIG. 4C).

[4] = system: GFAP-positive astrocytoma cells (U251); test: Fixable SR101 co-labeling with GFAP in astrocytoma xenograft acute slices, confocal stereology; assay type: cell-based, human astrocytoma cells implanted in nude rats; conditions: for cells positive for fixable SR101 in astrocytoma tumor regions: tumor core, acute slices, GFAP and DAPI counterstain
Method: Xenograft acute slices were incubated with the fixable version of SR101 (Texas Red Hydrazide; Sigma), washed at room temperature, and fixed with 4% paraformaldehyde for 12 hours at 4 degrees C. Slices were then rinsed in phosphate buffered saline, permeabilized with 0.3% triton, and blocked with CAS block (Invitrogen) (reference Pierre's paper). GBM xenograft slices were incubated 12-hours in anti-GFAP primary antibody (Millipore; 1:500), and Lymphoma sections were incubated 12-hours in anti-CD20 primary antibody (Millipore; 1:250). Sections were then rinsed and incubated with AlexaFluor488 secondary antibody (Invitrogen), followed by nuclear counterstaining with Dapi (Invitrogen). Fluorescently labeled sections were mounted on slides with vectashield (Vector labs) and No1.5 coverslips (VWR).
We randomly selected one rostral, midline, and caudal acute slice from each brain containing tumor incubated with fixable SR101. Glioma slices were immunofluorescently stained for GFAP, and slices containing lymphoma were stained for CD20. Ten randomly selected 150 um^2 tumor areas in each slice were optically sectioned to 50 um with a Zeiss 710LSM. The first […] of each image stack was discarded to minimize counts from cells damaged during sectioning. A maximum intensity projection image was generated from the remaining 45 um, and a stereology dissector was overlaid onto the image. Cells within the dissector, and those in contact with its left and bottom edges were counted for either GFAP or CD20 positivity, and for SR101 positivity. The percent overlap between immunostaining and SR101 positivity was calculated. […]
as §1

U251 derived tumor = test: SR101 staining of acute slices from U251 rodent xenografts, confocal imaging; assay type: cell-based, human astrocytoma cells implanted in nude rats
Method: Animals were anesthetized by intramuscular injection of a mixture of 10 mg/kg xylazine and 80 mg/kg ketamine (Wyeth, Madison, N.J.) and placed in a small animal stereotactic headframe (Model 900, David Kopf Instruments, Tujunga, Calif.). A 10-mm incision was made starting between the animal's eyes, exposing bregma. A bur hole was made 3.5 mm lateral to bregma. U251 or MC116 cells were infused at a depth of 4.5 mm below the surface of the brain after the syringe (Hamilton) was advanced 5.0 mm to create a 0.5-mm pocket. The cell suspension was infused using a UMP3-1 UltraMicroPump microinjector (WPI, Sarasota, Fla.) set to a volume of […] with an infusion rate of 3.00 μL/minute. The needle was withdrawn 2 minutes after the injection to minimize backflow of the cell suspension. The bur hole was covered with bone wax and the skin incision was sutured.
Twenty days post-implantation, rats were deeply anesthetized using the xylazine/ketamine mixture as described previously. Animals were rapidly decapitated, brains were removed, and coronal cortical slices (350 μm thick) were cut on a vibratome (Trent's aCSF protocol). Slices were then incubated at room temperature in aCSF containing 5 uM SR101 for 20 minutes followed by a 10 minute wash in aCSF.
as §2

[5] = system: human glioma cells in a rodent xenograft; test: In vivo labeling after intra-arterial injection of fixable SR101; parameters: species or system rat; conditions: brains processed two hours post-injection
From the text: Twenty days post-implantion, rats were deeply anesthetized using the previously described ketamin/xylazine mixture. The rats were then intra-arterially injected with Texas red hydrazide. Two hours post-injection brains were perfused, fixed, and sectioned on a cryostat. Sections were mounted on slides and imaged with a Zeiss LSM 710 confocal microscope.

SMILES | co-localization with CD20 positive cells in lymphoma tumor regions ([1]; MC116 xenograft acute slices, fixable SR101, stereology) | SR101 signal / cells labeled in lymphoma regions ([1]; acute slices from nude rats implanted with human CNS lymphoma cells) | SR101 labeling of cultured U251 astrocytoma cells [2] | staining of human lymphoma ([3]; human biopsies) | astrocytoma cases selectively stained ([3]; human biopsies versus final diagnosis) | staining of cells from astrocytoma tumor cores ([3]; human biopsies, 5 uM SR101) | staining of non-astrocytic tumor samples / other CNS neoplasms ([3]; human biopsies, 5 uM SR101) | labeling of low grade human oligodendroglioma samples ([3]; human biopsies, samples often GFAP positive) | co-localization with GFAP-positive cells in astrocytoma regions ([4]; U251 xenograft acute slices, fixable SR101, stereology) | mean fluorescence intensity (MFI), tumor (U251 derived tumor; SR101-labeled tumor core, acute slice, 5 uM SR101 20 minutes) | mean fluorescence intensity (MFI), background (U251 derived tumor; background of SR101-labeled tumor core image, acute slice) | difference in mean fluorescence intensity between U251 cells and reactive astrocytes (U251 derived tumor; normalized to background, n=9 optical sections from 3 acute slices) | in vivo labeling of tumor cells and tumor margin [5] | cells positive for fixable SR101 in astrocytoma tumor regions [4] | cells positive for fixable SR101 in astrocytoma tumor regions ([4]; listed as Fixable-SR101)
O=S(=O)([O-])c1cc(S(=O)(=O)O)ccc1C1=c2cc3c4c(c2Oc2c1cc1c5c2CCCN5CCC1)CCC[N+]=4CCC3 [SR101, Sulforhodamine 101] | 1.97% | minimal; also recorded: small number of cells | filled the cytoplasm of the cultured cell and clearly delineated cell nuclei | negative; also recorded: failed to stain | 14 of 15 | strong cytoplasmic staining | did not stain; also recorded: non-specific background staining | does not stain; also recorded: did not label | 79.6% | 102.84 | 8.74 | no statistically significant difference; also recorded: did not differ | – | – | –
NNS(=O)(=O)c1ccc(C2=c3cc4c5c(c3Oc3c2cc2c6c3CCCN6CCC2)CCC[N+]=5CCC4)c(S(=O)(=O)[O-])c1 [fixable SR101, Texas Red Hydrazide] | – | – | – | – | – | – | – | – | – | – | – | – | specific in vivo labeling of human glioma cells | majority of cells were positive | labeled the majority of cells
